What was measured:
[1] = Sensory evaluation of sweetness intensity in black tea au lait (Experimental Example 15); conditions: added alone; for concentration at which a sweetness-enhancing effect was confirmed: 3.0 points or more
Protocol: Instant black tea au lait powder (product name: Blendy (registered trademark) Stick Black Tea Au Lait (Ajinomoto AGF, Inc.)) was prepared according to the instructions, and then diluted 1.2 times with filtered water to prepare negative control black tea au lait.
When the carbohydrate content of Blendy (registered trademark) Stick Black Tea Au Lait is calculated as the total sucrose content, the negative control black tea au lait contains 5.2 g of sucrose per 100 g.
A sensory evaluation of sweetness intensity and black tea au lait flavor intensity was performed for each sample by a panel of three experts according to the following evaluation criteria.
Sweetness intensity and black tea au lait flavor intensity were each evaluated by 0.0 to 10.0 point based on the following reference samples (negative control (hereinafter referred to as NC) (0.0 point); reference 1 (hereinafter referred to as R1) (5.0 points); reference 2 (hereinafter referred to as R2) (10.0 points)). The average score (rounded to two decimal places) of each expert panelist was calculated. An average score of 3.0 points or more was considered to be functional. • NC (0.0 point): black tea au lait (product name: Black Tea Au Lait, Ajinomoto AGF, Inc.) prepared according to the instructions, and then diluted 1.2 times with filtered water (i.e., negative control black tea au lait). • R1 (5.0 points): with 0.26 g of sugar added per 99.74 g of NC. • R2 (10.0 points): with 0.52 g of sugar added per 99.48 g of NC.

[2] = Sensory evaluation of sweetness intensity in RebM solution (Experimental Examples 20-21); conditions: added alone, 3.0 points or more
Protocol: A negative control RebM solution (0.063 wt % RebM solution) was prepared by dissolving RebM in filtered water.
A sensory evaluation of sweetness intensity was performed for each sample by a panel of four experts according to the following evaluation criteria.
(§1) Sweetness intensity was evaluated by 0.0 to 10.0 points based on the following reference samples (negative control (hereinafter referred to as NC) (0.0 point); reference 1 (hereinafter referred to as R1) (3.0 points), reference 2 (hereinafter referred to as R2) (5.0 points); reference 3 (hereinafter referred to as R3) (10.0 points)). The average score (rounded to two decimal places) of each expert panelist was calculated. An average score of 3.0 points or more was considered to be functional. • NC (0.0 point): 0.063 wt % RebM solution (solvent: filtered water) • R1 (3.0 points): 0.063 wt % RebM solution (solvent: filtered water)+dodecanoic acid (1 ppb) • R2 (5.0 points): 0.066 wt % RebM solution (solvent: filtered water) • R3 (10.0 points): 0.069 wt % RebM solution (solvent: filtered water)
A sensory evaluation of sweetness intensity was performed for each sample by a panel of four experts according to the same evaluation criteria as in Experimental Example 20.

[3] = Sensory evaluation of sweetness intensity in aspartame solution (Experimental Example 11); conditions: added alone, 3.0 points or more
Protocol: A negative control aspartame solution (0.063 wt % aspartame solution) was prepared by dissolving aspartame in filtered water.
A sensory evaluation of sweetness intensity was performed for each sample by a panel of three experts according to the following evaluation criteria.
as §1, with “(5.0 points);” for “(3.0 points),”, “R2)” for “R2) (5.0 points); reference 3 (hereinafter referred to as R3)”, “aspartame” for “RebM”, “R1” for “R1 (3.0 points): 0.063 wt % RebM solution (solvent: filtered water)+dodecanoic acid (1 ppb) • R2”, “R2” for “R3”

[4] = Sensory evaluation of orange flavor intensity in orange drink (Experimental Example 13); conditions: added alone, 3.0 points or more
Protocol: A negative control orange drink was prepared by the same method as in Experimental Example 1.
A sensory evaluation of orange flavor intensity was performed for each sample by a panel of three experts according to the following evaluation criteria.
Orange flavor intensity was evaluated by 0.0 to 10.0 point based on the following reference samples (negative control (hereinafter referred to as NC) (0.0 point); reference 1 (hereinafter referred to as R1) (5.0 points); reference 2 (hereinafter referred to as R2) (10.0 points)). The average score (rounded to two decimal places) of each expert panelist was calculated. An average score of 3.0 points or more was considered to be functional. • NC (0.0 point): orange drink (trade name: Bireley's Orange) diluted 1.2 times with filtered water (i.e., negative control orange drink). • R1 (5.0 points): with 0.46 g of sucrose added per 99.54 g of NC. • R2 (10.0 points): with 0.92 g of sucrose added per 99.08 g of NC.

[5] = Sensory evaluation of cafe au lait flavor intensity in sucrose-containing cafe au lait (Experimental Example 16); conditions: added alone, 3.0 points or more
Protocol: Negative control cafe au lait was prepared by the same method as in Experimental Example 6.
A sensory evaluation of the presence or absence of cafe au lait flavor intensity enhancement was performed for each sample by a panel of four experts according to the following evaluation criteria.
Cafe au lait flavor intensity was evaluated by 0.0 to 10.0 point based on the following reference samples (negative control (hereinafter referred to as NC) (0.0 point); reference 1 (hereinafter referred to as R1) (5.0 points); reference 2 (hereinafter referred to as R2) (10.0 points)). The average score (rounded to two decimal places) of each expert panelist was calculated. An average score of 3.0 points or more was considered to be functional. • NC (0.0 point): cafe au lait prepared by mixing starting materials at the blending rate in Table 6 in Experimental Example 6 (i.e., negative control cafe au lait). • R1 (5.0 points): drink with 0.15 g of sucrose added per 99.85 g of NC. • R2 (10.0 points): drink with 0.3 g of sucrose added per 99.70 g of NC.

| SMILES | concentration at which a sweetness-enhancing effect was confirmed [1] [ppb] | concentration at which a sweetness-enhancing effect was confirmed [2] [ppb] | concentration at which a sweetness-enhancing effect was confirmed [3] [ppb] | concentration at which an orange flavor-enhancing effect was confirmed [4] [ppb] | concentration at which a cafe au lait flavor-enhancing effect was confirmed [5] [ppb] | sweetness-enhancing effect (in words) ([1]; 0.0001-1000 ppb) |
| --- | --- | --- | --- | --- | --- | --- |
| CC(C)CCC(=O)O [4-methylpentanoic acid] | ≥ 100 | 100 | 100 | ≥ 10 | ≥ 1 |  |
| CC1=C(O)C(=O)CC1 [cyclotene] | ≥ 1 | 10 | 10 | ≥ 10 | ≥ 0.1 |  |
| CCCCCCCCCC(=O)O [decanoic acid] |  | 10 | 10 | ≥ 0.01 | ≥ 0.01 | concentration-dependent sweetness-enhancing effect |

Reference: US20250302080A1, “SWEETNESS AND/OR FLAVOR ENHANCER” (AJINOMOTO CO., INC., priority 2022, published 2025)
